Experimental data: ChEMBL document CHEMBL6096693, “Fragment-to-Lead Medicinal Chemistry Publications in 2023” (J Med Chem, 2025)

Columns and labels:
[1] = target: Epidermal growth factor receptor (Homo sapiens, UniProt P00533); assay: Inhibition of EGFR (unknown origin)
[2] = Binding affinity to Interleukin-1beta (unknown origin) assessed as dissociation constant by SPR analysis; design: species or system Homo sapiens
[3] = target: Bifunctional dihydrofolate reductase-thymidylate synthase (Plasmodium falciparum K1, UniProt P13922); assay: Binding affinity to Plasmodium falciparum DHFR assessed as inhibition constant
[4] = target: Bromodomain-containing protein 4 (Homo sapiens, UniProt O60885); assay: Inhibition of BRD4 BD1 (unknown origin) using biotinylated tetra-acetylated H4 peptide SGRG-K(Ac)-GG-K(Ac)-GLG-K(Ac)-GGA-K(Ac)-RHRK-Biotin as substrate incubated for 60 mins by TR-FRET analysis
[5] = target: T1, Coagulation factor XII (Homo sapiens, UniProt P00748); assay: Inhibition of human FXIIa (unknown origin)
T1 sequence (P00748 whole entry): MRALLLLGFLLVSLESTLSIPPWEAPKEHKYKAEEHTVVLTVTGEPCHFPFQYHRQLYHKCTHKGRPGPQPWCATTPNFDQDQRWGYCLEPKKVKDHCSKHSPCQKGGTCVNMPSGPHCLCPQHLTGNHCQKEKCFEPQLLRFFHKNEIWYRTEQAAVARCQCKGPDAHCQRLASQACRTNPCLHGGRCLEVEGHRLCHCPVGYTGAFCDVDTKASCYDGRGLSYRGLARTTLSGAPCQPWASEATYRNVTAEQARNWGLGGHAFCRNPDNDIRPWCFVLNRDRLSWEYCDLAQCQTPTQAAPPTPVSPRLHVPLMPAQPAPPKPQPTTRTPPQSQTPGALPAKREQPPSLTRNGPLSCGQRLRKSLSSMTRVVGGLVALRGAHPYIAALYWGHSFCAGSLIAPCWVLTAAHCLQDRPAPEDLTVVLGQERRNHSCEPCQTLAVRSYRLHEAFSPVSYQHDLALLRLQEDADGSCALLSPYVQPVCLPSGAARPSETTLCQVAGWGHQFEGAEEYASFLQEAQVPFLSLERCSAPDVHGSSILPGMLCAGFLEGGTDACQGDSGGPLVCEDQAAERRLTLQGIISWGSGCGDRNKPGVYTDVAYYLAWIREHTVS

[6] = Inhibition of SARS-CoV2 Mac1 extracted from Escherichia coli Rosetta2 (DE3); design: species or system Severe acute respiratory syndrome coronavirus 2
[7] = target: T2, ATPase family AAA domain-containing protein 2 (Homo sapiens, UniProt Q6PL18); assay: Inhibition of recombinant ATAD2 bromodomain (unknown origin) by TR-FRET assay
T2 sequence (Q6PL18 whole entry): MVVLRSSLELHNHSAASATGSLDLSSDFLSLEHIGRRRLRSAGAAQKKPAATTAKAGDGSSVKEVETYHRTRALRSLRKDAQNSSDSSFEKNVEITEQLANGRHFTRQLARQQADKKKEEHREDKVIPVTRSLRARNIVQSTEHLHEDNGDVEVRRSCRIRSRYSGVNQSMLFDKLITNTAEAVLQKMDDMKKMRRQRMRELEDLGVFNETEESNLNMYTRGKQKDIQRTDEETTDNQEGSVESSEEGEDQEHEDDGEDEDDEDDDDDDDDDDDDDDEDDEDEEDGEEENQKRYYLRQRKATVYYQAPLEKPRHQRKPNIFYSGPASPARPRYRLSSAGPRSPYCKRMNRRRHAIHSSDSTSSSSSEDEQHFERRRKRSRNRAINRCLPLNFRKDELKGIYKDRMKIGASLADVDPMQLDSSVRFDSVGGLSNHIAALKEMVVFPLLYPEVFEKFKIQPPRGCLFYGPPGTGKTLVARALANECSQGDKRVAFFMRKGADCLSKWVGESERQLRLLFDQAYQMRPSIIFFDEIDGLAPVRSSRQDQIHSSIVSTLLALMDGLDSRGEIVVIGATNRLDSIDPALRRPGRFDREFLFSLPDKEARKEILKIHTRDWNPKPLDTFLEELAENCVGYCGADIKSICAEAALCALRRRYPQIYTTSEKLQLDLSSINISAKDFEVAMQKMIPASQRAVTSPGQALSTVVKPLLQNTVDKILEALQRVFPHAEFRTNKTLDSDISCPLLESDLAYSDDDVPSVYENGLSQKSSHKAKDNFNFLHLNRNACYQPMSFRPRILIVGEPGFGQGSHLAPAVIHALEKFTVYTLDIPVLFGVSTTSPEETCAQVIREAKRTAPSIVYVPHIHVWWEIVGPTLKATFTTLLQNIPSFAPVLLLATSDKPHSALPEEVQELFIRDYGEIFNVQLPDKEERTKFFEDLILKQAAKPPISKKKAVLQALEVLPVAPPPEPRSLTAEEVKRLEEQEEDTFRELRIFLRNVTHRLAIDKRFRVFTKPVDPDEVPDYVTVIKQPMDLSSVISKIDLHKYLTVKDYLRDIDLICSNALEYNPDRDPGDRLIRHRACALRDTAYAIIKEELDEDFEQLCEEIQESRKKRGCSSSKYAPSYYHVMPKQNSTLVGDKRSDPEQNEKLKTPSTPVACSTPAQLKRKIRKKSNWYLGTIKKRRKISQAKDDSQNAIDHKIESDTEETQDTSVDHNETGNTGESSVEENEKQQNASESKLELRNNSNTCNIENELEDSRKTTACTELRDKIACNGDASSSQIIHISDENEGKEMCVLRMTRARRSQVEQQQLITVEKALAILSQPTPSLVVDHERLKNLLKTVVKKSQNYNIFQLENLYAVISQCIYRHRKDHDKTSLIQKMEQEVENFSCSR

Chain of Epidermal growth factor receptor (P00533 whole entry): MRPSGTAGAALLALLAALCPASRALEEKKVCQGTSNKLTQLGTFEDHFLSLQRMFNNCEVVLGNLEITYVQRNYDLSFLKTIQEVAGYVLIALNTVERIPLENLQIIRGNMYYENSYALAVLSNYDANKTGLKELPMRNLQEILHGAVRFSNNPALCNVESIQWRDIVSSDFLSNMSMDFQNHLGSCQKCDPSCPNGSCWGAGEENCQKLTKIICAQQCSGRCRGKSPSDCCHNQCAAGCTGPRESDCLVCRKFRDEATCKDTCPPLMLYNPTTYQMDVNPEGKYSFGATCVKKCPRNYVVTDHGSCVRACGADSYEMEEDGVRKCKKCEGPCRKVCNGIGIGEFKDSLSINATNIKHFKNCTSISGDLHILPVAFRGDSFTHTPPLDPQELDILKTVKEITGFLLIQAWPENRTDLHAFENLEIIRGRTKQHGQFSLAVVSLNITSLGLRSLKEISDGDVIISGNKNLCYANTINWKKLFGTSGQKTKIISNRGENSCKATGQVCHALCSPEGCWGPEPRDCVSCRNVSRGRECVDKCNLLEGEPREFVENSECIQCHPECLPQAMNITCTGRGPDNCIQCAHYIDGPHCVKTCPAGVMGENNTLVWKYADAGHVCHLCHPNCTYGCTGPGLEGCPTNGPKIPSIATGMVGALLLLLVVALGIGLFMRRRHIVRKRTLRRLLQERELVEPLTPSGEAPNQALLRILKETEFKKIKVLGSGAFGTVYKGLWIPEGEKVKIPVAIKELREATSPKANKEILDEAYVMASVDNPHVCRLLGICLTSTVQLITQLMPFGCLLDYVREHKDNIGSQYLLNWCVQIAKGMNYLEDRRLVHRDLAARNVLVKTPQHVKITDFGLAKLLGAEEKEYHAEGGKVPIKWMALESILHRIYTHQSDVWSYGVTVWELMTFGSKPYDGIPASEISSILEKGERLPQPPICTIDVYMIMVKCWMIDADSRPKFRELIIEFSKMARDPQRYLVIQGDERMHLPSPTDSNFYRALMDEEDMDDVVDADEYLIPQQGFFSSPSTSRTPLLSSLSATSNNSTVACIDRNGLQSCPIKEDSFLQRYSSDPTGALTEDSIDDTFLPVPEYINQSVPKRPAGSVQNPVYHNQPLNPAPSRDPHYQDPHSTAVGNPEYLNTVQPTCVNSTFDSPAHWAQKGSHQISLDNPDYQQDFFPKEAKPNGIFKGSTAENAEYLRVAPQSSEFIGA
Chain of Bifunctional dihydrofolate reductase-thymidylate synthase (P13922 whole entry): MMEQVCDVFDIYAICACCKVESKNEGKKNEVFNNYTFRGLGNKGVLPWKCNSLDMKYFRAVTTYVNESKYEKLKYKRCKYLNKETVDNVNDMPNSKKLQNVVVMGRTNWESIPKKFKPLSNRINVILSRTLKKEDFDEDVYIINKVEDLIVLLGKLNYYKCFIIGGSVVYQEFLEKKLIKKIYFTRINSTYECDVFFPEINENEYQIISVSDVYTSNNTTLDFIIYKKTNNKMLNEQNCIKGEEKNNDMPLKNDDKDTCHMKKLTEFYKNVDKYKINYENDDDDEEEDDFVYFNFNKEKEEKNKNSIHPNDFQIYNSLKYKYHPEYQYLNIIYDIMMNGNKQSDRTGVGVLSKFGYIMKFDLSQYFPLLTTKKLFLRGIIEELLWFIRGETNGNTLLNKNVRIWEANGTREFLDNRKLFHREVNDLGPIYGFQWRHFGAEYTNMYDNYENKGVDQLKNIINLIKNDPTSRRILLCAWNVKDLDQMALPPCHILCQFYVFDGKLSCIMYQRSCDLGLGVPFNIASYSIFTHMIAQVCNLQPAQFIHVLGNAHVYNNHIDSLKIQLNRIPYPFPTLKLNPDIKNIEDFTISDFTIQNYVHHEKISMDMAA

Question: Which IC50 [1] does the source give for `C=CC(=O)Nc1ccccn1` here?
Answer: > 500 µM

Question: For `O=C1Nc2cc(C(F)(F)F)ccc2C1(O)c1cc(Cl)ccc1O` (configuration not stated), which Kd [2] is on record?
Answer: 520 µM

Question: Which Ki [3] does the source give for `O=C(O)c1cccc(-c2ccncc2)c1` here?
Answer: > 500 µM

Question: With `O=C(O)c1cc(-c2c[nH]c3ccccc23)on1` as the compound, how does the IC50 [4] read?
Answer: 97 µM

Question: Which IC50 [1] does the source give for `C=CC(=O)Nc1cc(-c2cn(C)c3ccccc23)ncn1` here?
Answer: 0.9 µM

Question: With `Cc1ccc2c(c1)NC(=O)[C@@]2(c1cn[nH]c1)c1cc(-c2ccc(C(=O)O)cc2C(=O)O)ccc1O` as the compound, how does the Kd [2] read?
Answer: 1.1 µM

Question: Which IC50 [4] does the source give for `Cn1cc(-c2onc(C(=O)O)c2CO)c2ccccc21` here?
Answer: 0.91 µM

Question: For `O=C(Nc1ccc(C(=O)N[C@H]2c3cccc(O)c3C[C@H]2C(=O)O)cc1)NC1CC1`, which IC50 [5] is on record?
Answer: 390 µM

Question: And the IC50 [6]?
Answer: > 180 µM

Question: Which IC50 [4] does the source give for `Cc1cc(C)on1` here?
Answer: 84 µM

Question: For `CCNC(=O)[C@H](C)NC(=O)Cn1cc(-c2c(C)noc2C)cn1`, which IC50 [4] is on record?
Answer: 0.05 µM

Question: For `Cn1c(=O)c2[nH]cnc2n(C)c1=O` [THEOPHYLLINE ANHYDROUS], which IC50 [7] is on record?
Answer: 320 µM
